Measured values as given in ChEMBL document CHEMBL3727350, “Agents and methods for treating ischemic and other diseases” (2014).
Activity calls are given as the source filed them. The calls are words filed in the database; no cut-off is given here.

Assays:
[1] = molecular target: Transient receptor potential cation channel subfamily M member 7 (Rattus norvegicus) (UniProt Q925B3); experiment: Inhibition of TRPM7 in rat H9C2 cells exposed to oxygen glucose deprivation condition for 1 to 6 hrs assessed as reduction in TRPM7-mediated anoxic cell death in presence of 1 uM nifedipine by propidium iodide uptake assay; format: cell-based
[2] = molecular target: Transient receptor potential cation channel subfamily M member 7 (Mus musculus) (UniProt Q923J1); experiment: Inhibition of TRPM7 in mouse AML12 cells assessed as protection against oxygen glucose deprivation-induced cell death at 0.5 to 5 uM; format: cell-based
[3] = molecular target: Transient receptor potential cation channel subfamily V member 1 (Homo sapiens) (UniProt Q8NER1); experiment: Inhibition of TRPV1 (unknown origin) expressed in HEK293 cells assessed as effect on agonist-induced Ca2+ changes; format: functional, cell-based
[4] = molecular target: Transient receptor potential cation channel subfamily M member 7 (Rattus norvegicus) (UniProt Q925B3); experiment: Inhibition of TRPM7 in Sprague-Dawley rat retinal explants subjected to 1 hr oxygen-glucose deprivation assessed as reduction in retinal ischemia at 5 uM
[5] = molecular target: Transient receptor potential cation channel subfamily M member 7 (Mus musculus) (UniProt Q923J1); experiment: Inhibition of TRPM7 in mouse primary neuronal cells exposed to oxygen glucose deprivation condition for 1 to 3 hrs assessed as reduction in TRPM7-mediated anoxic cell death dosed after oxygen glucose deprivation condition by propidium iodide uptake assay; conditions: Primary neuron
Mus musculus [6] = experiment: Toxicity in mouse up to 150 uM, iv; format: organism-based; conditions: in vivo
Mus musculus [7] = experiment: Reduction in infarct volume in mouse model of permanent LAD coronary artery ligation at 10 to 335 ug/kg, iv administered as single dose within 15 mins of LAD occlusion by TTC staining based method; format: functional, organism-based
Mus musculus [8] = experiment: Reduction in dead cells following LAD restriction of heart in mouse model of permanent LAD coronary artery ligation at 10 to 100 ug/kg, iv administered as single dose within 15 mins of LAD occlusion by TUNEL assay; format: functional, organism-based
[9] = molecular target: Protein XNDC1N (Homo sapiens) (UniProt Q6ZNB5); experiment: Inhibition of TRPC2 (unknown origin) expressed in HEK293 cells assessed as effect on agonist-induced Ca2+ changes; format: functional, cell-based
[10] = molecular target: Transient receptor potential cation channel subfamily A member 1 (Homo sapiens) (UniProt O75762); experiment: Inhibition of TRPA1 ((unknown origin) expressed in HEK293 cells assessed as effect on agonist-induced Ca2+ changes; format: functional, cell-based
[11] = molecular target: Transient receptor potential cation channel subfamily M member 6 (Homo sapiens) (UniProt Q9BX84); experiment: Inhibition of TRPM6 (unknown origin) expressed in HEK293 cells assessed as effect on agonist-induced Ca2+ changes; format: functional, cell-based
Mus musculus [12] = organism: Mus musculus; experiment: Inhibition of sodium channel in mouse cortical neurons assessed as effect on Na+ currents
[13] = molecular target: Transient receptor potential cation channel subfamily M member 7 (Rattus norvegicus) (UniProt Q925B3); experiment: Inhibition of TRPM7 in rat H9c2 cells assessed as protection against oxygen glucose deprivation-induced cell death at 0.05 to 5 uM in presence of 1 uM nifedipine; format: cell-based
[14] = molecular target: Transient receptor potential cation channel subfamily M member 7 (Mus musculus) (UniProt Q923J1); experiment: Inhibition of TRPM7 in mouse mouse primary cortical neurons exposed to 2 hrs oxygen glucose deprivation condition assessed as reduction in TRPM7-mediated anoxic cell death measured after 20 hrs by propidium iodide uptake assay; format: cell-based; conditions: Cerebral cortex neuron
[15] = molecular target: Transient receptor potential cation channel subfamily M member 2 (Homo sapiens) (UniProt O94759); experiment: Inhibition of TRPM2 (unknown origin) expressed in HEK293 cells assessed as effect on agonist-induced Ca2+ changes; format: functional, cell-based
[16] = molecular target: Transient receptor potential cation channel subfamily M member 7 (Rattus norvegicus) (UniProt Q925B3); experiment: Inhibition of TRPM7 in rat H9C2 cells assessed as reduction in channel currents at 0.3 to 30 uM by whole cell patch clamp assay; format: cell-based
[17] = molecular target: Transient receptor potential cation channel subfamily M member 7 (Rattus norvegicus) (UniProt Q925B3); experiment: Inhibition of TRPM7 in cultured rat retinal ganglion cells exposed to oxygen glucose deprivation condition for 3 hrs assessed as protection against TRPM7-mediated cell death at by propidium iodide uptake assay; set-up: scale not given: the % may be the effect or the level left
[18] = molecular target: Transient receptor potential cation channel subfamily M member 7 (Rattus norvegicus) (UniProt Q925B3); experiment: Inhibition of TRPM7 in rat H9c2 cells assessed as protection against oxygen glucose deprivation-induced cell death at 0.05 to 5 uM applied during OGD; format: cell-based
Mus musculus [19] = organism: Mus musculus; experiment: Inhibition of potassium channel in mouse cortical neurons assessed as reduction in potassium currents at -10mV membrane potential
[20] = molecular target: Glutamate NMDA receptor (Mus musculus) (UniProt P35436+Q91ZU9+Q03391+P35438+Q01097+Q01098+A2AIR5); experiment: Inhibition of NMDA receptor in mouse cortical neurons assessed as effect on NMDA currents; format: protein-complex assay
Rattus norvegicus [21] = experiment: Analgesic activity in iv dosed rat model of formalin-induced inflammatory pain assessed reduction in formalin-induced phase-1 pain flinches; format: functional, organism-based
[22] = molecular target: Transient receptor potential cation channel subfamily M member 7 (Mus musculus) (UniProt Q923J1); experiment: Inhibition of TRPM7 in mouse mouse primary cortical neurons exposed to 1 hrs oxygen glucose deprivation condition assessed as reduction in TRPM7-mediated anoxic cell death at 1.25 to 10 uM measured after 20 hrs by propidium iodide uptake assay; format: cell-based; conditions: Cerebral cortex neuron
[23] = molecular target: Transient receptor potential cation channel subfamily M member 7 (Mus musculus) (UniProt Q923J1); experiment: Inhibition of TRPM7 in mouse primary neuronal cells exposed to oxygen glucose deprivation condition for 1 to 3 hrs assessed as reduction in TRPM7-mediated anoxic cell death dosed before oxygen glucose deprivation condition by propidium iodide uptake assay; conditions: Primary neuron
Rattus norvegicus [24] = organism: Rattus norvegicus; experiment: Reduction in retinal cell death in rat model of acute glaucoma assessed as reduction in TUNEL positive cells after exposure to 1 hr high IOP at 1 uM; format: functional, organism-based
Mus musculus [25] = organism: Mus musculus; experiment: Inhibition of calcium channel in mouse cortical neurons assessed as effect on Ca2+ currents; format: functional
[26] = molecular target: Glutamate receptor ionotropic, AMPA (Mus musculus) (UniProt P23819+P23818+Q9Z2W8+Q9Z2W9); experiment: Inhibition of AMPA receptor in mouse cortical neurons assessed as effect on AMPA currents; format: protein-complex assay
[27] = molecular target: Transient receptor potential cation channel subfamily M member 7 (Rattus norvegicus) (UniProt Q925B3); experiment: Inhibition of TRPM7 in rat H9c2 cells assessed as protection against oxygen glucose deprivation-induced cell death at 0.05 to 5 uM; format: cell-based
[28] = molecular target: Transient receptor potential cation channel subfamily M member 7 (Rattus norvegicus) (UniProt Q925B3); experiment: Inhibition of TRPM7 in rat retinal explants exposed to oxygen glucose deprivation condition for 1 hr assessed as protection against TRPM7-mediated cell death at by propidium iodide uptake assay
[29] = molecular target: Transient receptor potential cation channel subfamily M member 7 (Mus musculus) (UniProt Q923J1); experiment: Inhibition of Tet-induced Flag-tagged mouse TRPM7 expressed in HEK293 cells assessed as reduction in channel currents at 0.3 to 30 uM by whole cell patch clamp assay; format: cell-based
[30] = molecular target: Transient receptor potential cation channel subfamily M member 7 (Rattus norvegicus) (UniProt Q925B3); experiment: Inhibition of TRPM7 in rat H9C2 cells exposed to 6 hrs oxygen glucose deprivation condition followed by 2 hrs recovery assessed as reduction in TRPM7-mediated anoxic cell death at 0.05 to 5 uM by propidium iodide uptake assay; format: cell-based
[31] = molecular target: Transient receptor potential cation channel subfamily M member 7 (Rattus norvegicus) (UniProt Q925B3); experiment: Inhibition of TRPM7 in Sprague-Dawley rat retinal explants dissociated and subjected to 1 hr oxygen-glucose deprivation assessed as reduction in retinal cell death at 1 and 5 uM
[32] = molecular target: Transient receptor potential cation channel subfamily M member 7 (Mus musculus) (UniProt Q923J1); experiment: Inhibition of Tet-induced Flag-tagged mouse TRPM7 expressed in HEK293 cells assessed as reduction in channel currents at 2 mM using compound applied extracellularly by whole cell patch clamp assay; format: cell-based
[33] = molecular target: Transient receptor potential cation channel subfamily M member 7 (Mus musculus) (UniProt Q923J1); experiment: Inhibition of Tet-induced Flag-tagged mouse TRPM7 expressed in HEK293 cells assessed as reduction in channel currents at 2 mM using compound applied intracellularly by whole cell patch clamp assay; format: cell-based
[34] = molecular target: Transient receptor potential cation channel subfamily M member 7 (Mus musculus) (UniProt Q923J1); experiment: Inhibition of Tet-induced Flag-tagged mouse TRPM7 expressed in HEK293 cells assessed as inhibition of channel-mediated cell death in presence of Mg2+ incubated for 24 to 48 hrs by propidium iodide uptake assay; format: cell-based; set-up: concentration or dose not given beside the values
Mus musculus [35] = experiment: Reduction in damage to heart in mouse model of myocardial infarction at 10 to 35 ug/kg; format: functional, organism-based
[36] = molecular target: Transient receptor potential cation channel subfamily M member 7 (Rattus norvegicus) (UniProt Q925B3); experiment: Inhibition of TRPM7 in rat H9c2 cells assessed as protection against oxygen glucose deprivation-induced cell death at 0.05 to 5 uM pre-treated for 24 hrs before OGD; format: cell-based
Rattus norvegicus [37] = experiment: Analgesic activity in iv dosed rat model of formalin-induced inflammatory pain assessed reduction in formalin-induced phase-2 pain flinches; format: functional, organism-based
[38] = molecular target: Transient receptor potential cation channel subfamily M member 4 (Homo sapiens) (UniProt Q8TD43); experiment: Inhibition of TRPM4 (unknown origin) expressed in HEK293 cells assessed as effect on agonist-induced Ca2+ changes; format: functional, cell-based
[39] = Inhibition of cell proliferation of human WERI cells at 10 uM incubated for 48 to 96 hrs; format: functional
[40] = molecular target: Transient receptor potential cation channel subfamily M member 7 (Rattus norvegicus) (UniProt Q925B3); experiment: Inhibition of TRPM7 in rat H9c2 cells assessed as protection against oxygen glucose deprivation-induced cell death at 0.05 to 5 uM pre-treated for 24 hrs before OGD in presence of 1 uM nifedipine; format: cell-based

Sequence of Transient receptor potential cation channel subfamily M member 7 (Rattus norvegicus) (Q925B3 whole entry): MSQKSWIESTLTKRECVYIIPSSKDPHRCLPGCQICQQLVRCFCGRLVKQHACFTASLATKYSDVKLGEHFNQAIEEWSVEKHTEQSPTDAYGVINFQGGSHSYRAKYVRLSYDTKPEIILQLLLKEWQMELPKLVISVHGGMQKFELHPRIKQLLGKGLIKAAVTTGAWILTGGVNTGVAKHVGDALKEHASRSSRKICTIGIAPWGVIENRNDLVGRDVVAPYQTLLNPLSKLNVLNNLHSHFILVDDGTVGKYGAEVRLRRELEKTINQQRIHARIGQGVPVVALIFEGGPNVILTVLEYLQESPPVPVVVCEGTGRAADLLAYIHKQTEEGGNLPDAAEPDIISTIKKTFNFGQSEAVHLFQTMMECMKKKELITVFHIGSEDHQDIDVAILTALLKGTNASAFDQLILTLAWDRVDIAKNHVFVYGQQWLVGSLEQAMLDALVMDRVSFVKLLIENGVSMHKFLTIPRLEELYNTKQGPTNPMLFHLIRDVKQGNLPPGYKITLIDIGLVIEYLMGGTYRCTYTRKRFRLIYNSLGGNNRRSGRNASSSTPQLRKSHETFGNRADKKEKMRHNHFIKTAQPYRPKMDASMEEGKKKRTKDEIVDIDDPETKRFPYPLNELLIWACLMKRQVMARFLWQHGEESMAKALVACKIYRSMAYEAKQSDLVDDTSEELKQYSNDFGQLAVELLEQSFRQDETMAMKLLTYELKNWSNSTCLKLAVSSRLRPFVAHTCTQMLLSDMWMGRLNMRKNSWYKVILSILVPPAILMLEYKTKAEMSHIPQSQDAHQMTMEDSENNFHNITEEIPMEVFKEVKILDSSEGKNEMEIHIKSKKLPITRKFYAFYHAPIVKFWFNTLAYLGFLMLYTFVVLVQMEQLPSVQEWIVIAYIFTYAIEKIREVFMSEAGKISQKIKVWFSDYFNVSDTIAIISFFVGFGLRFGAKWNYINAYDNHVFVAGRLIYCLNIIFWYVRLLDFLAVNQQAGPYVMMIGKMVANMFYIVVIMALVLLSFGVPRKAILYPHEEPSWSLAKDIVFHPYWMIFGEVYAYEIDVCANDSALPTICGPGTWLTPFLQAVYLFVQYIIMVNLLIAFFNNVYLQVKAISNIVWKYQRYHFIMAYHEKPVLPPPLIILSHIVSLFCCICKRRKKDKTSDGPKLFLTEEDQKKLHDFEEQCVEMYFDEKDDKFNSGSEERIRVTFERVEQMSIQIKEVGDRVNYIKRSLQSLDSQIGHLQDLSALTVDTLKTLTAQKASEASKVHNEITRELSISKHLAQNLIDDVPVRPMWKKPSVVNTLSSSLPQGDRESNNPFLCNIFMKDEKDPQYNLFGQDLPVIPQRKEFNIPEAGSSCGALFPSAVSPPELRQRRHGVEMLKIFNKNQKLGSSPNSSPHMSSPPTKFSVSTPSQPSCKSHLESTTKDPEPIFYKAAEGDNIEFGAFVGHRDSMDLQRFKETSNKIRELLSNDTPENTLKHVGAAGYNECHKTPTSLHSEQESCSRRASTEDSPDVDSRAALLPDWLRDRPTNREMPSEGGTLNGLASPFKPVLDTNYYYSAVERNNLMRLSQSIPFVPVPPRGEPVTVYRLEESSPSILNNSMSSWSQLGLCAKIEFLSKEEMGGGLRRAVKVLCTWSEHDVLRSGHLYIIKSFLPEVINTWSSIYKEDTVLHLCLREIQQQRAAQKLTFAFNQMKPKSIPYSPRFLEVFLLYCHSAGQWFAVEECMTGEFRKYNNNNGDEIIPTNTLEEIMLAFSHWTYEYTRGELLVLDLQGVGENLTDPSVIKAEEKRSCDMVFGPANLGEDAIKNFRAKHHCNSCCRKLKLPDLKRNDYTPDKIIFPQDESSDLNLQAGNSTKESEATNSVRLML
Sequence of Transient receptor potential cation channel subfamily M member 7 (Mus musculus) (Q923J1 whole entry): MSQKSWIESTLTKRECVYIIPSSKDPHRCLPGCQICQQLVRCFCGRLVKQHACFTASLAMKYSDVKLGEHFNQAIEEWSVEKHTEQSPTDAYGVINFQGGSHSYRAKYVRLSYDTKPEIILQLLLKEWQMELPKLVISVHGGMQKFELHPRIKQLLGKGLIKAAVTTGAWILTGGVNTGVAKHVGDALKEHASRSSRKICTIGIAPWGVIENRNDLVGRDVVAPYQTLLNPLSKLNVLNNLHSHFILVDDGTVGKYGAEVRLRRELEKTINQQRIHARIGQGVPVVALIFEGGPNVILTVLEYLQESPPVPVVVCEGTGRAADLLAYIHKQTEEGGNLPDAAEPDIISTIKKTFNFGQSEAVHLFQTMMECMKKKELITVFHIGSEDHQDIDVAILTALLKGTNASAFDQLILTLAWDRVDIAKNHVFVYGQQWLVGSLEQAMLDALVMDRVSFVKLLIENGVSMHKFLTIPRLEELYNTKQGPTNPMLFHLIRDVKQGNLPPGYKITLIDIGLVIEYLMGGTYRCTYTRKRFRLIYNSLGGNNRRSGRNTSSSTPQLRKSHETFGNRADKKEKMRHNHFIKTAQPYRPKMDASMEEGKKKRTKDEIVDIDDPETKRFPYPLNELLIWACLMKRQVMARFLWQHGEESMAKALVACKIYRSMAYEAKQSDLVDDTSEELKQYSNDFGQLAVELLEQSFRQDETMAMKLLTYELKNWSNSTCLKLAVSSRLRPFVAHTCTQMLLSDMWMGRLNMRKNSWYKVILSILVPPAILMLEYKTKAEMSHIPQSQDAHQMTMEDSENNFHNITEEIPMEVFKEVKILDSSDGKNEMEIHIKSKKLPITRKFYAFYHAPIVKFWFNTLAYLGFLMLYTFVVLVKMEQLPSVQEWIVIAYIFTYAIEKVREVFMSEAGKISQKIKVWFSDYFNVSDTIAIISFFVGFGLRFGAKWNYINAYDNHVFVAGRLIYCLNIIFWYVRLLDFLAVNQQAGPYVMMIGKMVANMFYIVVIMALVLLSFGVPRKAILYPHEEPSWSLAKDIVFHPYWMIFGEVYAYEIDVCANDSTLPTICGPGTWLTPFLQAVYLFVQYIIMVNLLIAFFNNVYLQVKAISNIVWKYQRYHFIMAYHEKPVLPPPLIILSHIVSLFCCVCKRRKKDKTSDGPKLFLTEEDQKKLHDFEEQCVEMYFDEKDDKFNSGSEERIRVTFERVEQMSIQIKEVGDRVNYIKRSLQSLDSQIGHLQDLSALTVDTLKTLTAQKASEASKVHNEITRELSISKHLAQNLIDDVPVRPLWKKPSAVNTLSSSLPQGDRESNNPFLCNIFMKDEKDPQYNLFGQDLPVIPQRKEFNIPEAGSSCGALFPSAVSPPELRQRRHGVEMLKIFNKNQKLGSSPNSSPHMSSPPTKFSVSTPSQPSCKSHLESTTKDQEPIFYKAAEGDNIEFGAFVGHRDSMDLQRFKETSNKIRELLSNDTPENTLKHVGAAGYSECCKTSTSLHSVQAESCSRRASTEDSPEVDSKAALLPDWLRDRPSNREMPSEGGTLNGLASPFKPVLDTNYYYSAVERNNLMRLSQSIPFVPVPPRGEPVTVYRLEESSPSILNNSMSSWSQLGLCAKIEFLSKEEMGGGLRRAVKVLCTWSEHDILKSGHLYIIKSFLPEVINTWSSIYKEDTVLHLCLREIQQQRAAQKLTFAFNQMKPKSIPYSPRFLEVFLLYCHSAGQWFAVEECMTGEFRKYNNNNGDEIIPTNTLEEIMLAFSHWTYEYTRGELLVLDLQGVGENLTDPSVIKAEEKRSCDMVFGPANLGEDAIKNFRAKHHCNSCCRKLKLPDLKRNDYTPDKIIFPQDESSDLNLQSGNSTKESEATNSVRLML
Sequence of Transient receptor potential cation channel subfamily M member 4 (Homo sapiens) (Q8TD43 whole entry): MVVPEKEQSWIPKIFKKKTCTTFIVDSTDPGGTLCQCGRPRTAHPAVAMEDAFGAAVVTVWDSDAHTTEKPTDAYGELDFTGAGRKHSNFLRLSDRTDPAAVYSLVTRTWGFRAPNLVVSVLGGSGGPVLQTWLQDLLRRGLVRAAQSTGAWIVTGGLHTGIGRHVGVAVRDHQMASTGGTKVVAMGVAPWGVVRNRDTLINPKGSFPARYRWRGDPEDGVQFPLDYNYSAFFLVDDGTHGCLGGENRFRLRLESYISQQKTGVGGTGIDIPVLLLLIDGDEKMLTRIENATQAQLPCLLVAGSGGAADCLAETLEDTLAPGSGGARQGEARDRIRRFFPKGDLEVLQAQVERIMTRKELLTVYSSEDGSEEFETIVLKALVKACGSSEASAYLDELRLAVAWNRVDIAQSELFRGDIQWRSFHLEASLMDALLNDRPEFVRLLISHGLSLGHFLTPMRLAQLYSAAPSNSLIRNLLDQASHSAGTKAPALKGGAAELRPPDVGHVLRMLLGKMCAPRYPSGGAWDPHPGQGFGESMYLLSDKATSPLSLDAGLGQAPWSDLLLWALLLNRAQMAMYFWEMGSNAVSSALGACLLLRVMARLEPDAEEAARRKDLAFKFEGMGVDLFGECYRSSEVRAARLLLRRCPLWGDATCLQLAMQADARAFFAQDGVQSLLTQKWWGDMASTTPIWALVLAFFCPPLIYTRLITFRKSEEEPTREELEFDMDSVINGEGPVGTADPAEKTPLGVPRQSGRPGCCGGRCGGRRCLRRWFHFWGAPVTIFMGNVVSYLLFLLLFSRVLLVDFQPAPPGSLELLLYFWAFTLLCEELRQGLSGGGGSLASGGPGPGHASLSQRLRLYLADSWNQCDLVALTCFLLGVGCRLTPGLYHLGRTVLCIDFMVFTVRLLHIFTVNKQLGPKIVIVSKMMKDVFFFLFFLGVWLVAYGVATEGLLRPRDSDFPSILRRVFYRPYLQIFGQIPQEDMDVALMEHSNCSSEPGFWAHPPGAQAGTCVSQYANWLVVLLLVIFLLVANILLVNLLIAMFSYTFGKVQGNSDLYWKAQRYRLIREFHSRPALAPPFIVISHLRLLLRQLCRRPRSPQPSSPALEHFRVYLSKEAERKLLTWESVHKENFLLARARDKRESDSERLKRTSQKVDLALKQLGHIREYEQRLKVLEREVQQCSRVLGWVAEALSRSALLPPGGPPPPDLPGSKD

For Cc1c(Cc2ccc(Cl)c(Cl)c2)c(=O)oc2cc(O)ccc12, the inhibition [1] was “Active”, the inhibition [2] was “Active” and the inhibition [3] was “inactive”. The inhibition [4] was “Active”, the inhibition [5] was “Active” and the Activity (Mus musculus [6]) was “Non-toxic”. For the same compound, the Activity (Mus musculus [7]) was “Active”, the Activity (Mus musculus [8]) was “Active” and the inhibition [9] was “inactive”. The inhibition [10] was “inactive”, the inhibition [11] was “inactive” and the inhibition (Mus musculus [12]) was “inactive”. For the same compound, the inhibition [13] was “Active”, the inhibition [14] was “Active” and the inhibition [15] was “inactive”. The inhibition [16] was “Active”, the Activity [17] was 66% and the inhibition [18] was “Active”. For the same compound, the inhibition (Mus musculus [19]) was 20%, the inhibition [20] was “inactive” and the Activity (Rattus norvegicus [21]) was “inactive”. The inhibition [22] was “Active”, the inhibition [23] was “Active” and the Activity (Rattus norvegicus [24]) was “Active”. The inhibition (Mus musculus [25]) was “inactive”, the inhibition [26] was “inactive” and the inhibition [27] was “Active”. For the same compound, the inhibition [28] was “Active”, the inhibition [29] was “Active” and the inhibition [30] was “Active”. The inhibition [31] was “Active”, the inhibition [32] was “Active” and the inhibition [33] was “inactive”. The inhibition [34] was “Active”, the Activity (Mus musculus [35]) was “Active” and the inhibition [36] was “Active”. The Activity (Rattus norvegicus [37]) was “Active”, the inhibition [38] was “inactive” and the inhibition at 10 µM [39] was greater than 20%. The inhibition [40] was “Active”.
